Measured values published in patent US20110166119A1 (Glade Organics Private Limited, priority 2008, published 2011).
Like-named read-outs stand apart in the source and are kept apart here. Each block holds one molecule with its values, some of them ahead of it.

What was measured:
[1] = test system: Methicillin Resistant Staphylococcus aureus (MRSA); experiment: Checkerboard MIC, MRSA; format: cell-based; details: for MIC: Staphylococcus aureus, MRSA, read-out: MIC when taken individually
Experimental: (§1) The synergistic outcome of the combination was recorded as a concave curve.
(§2) The checkerboard array was performed in order to find the MIC's of selected antibacterial agents against the strains of Pseudomonas aeruginosa, Acinetobacter baumannii, Klebsiella pneumoniae and MRSA (Methicillin Resistant Staphylococcus aureus).
(§3) • 1. A total of 50 μl of Mueller-Hinton broth was distributed into each well of the micro dilution plates. • 2. The first antibiotic (A) of the combination was serially twofold diluted along the Y-axis, while the second antibiotic (B) was diluted along the X-axis. • 3. An inoculum equal to a 0.5 McFarland turbidity standard was prepared from each culture in sterile saline. • 4. Each micro titer well was inoculated with 100 μl of a bacterial inoculum and the plate was loaded on ELISA plate reader (37° C. for 24 hrs). Formula for ΣFIC (Fractional inhibitory concentration): […]
(§4) Where FIC A is the MIC of drug A in the combination/MIC of drug A alone,
(§5) FIC B is the MIC of drug B in the combination/MIC of drug B alone.
(§6) The combination is considered synergistic when the ΣFIC is ≦0.5, indifferent when the ΣFIC is >0.5 to <2, and antagonistic when the ΣFIC is ≧2.

[2] = test system: Klebsiella pneumoniae (VIM producing); experiment: Checkerboard MIC, Klebsiella pneumoniae; format: cell-based; details: for MIC: Klebsiella pneumoniae, single drug, read-out: MIC when taken individually
Experimental: as §2, §3, §4, §5, §6

Acinetobacter baumanii = experiment: Checkerboard MIC, Acinetobacter baumanii; format: cell-based, Acinetobacter baumannii; details: for MIC: Acinetobacter baumannii, single drug, read-out: MIC when taken individually
Experimental: as §1, §2, §3, §4, §5, §6

[3] = test system: Pseudomonas aeruginosa ATCC 27853; experiment: Checkerboard MIC, Pseudomonas aeruginosa ATCC 27853; format: cell-based; details: for MIC in combination: Meropenem + Aztreonam combination, Table 6; for MIC: Pseudomonas aeruginosa, ATCC27853, read-out: MIC when taken individually
Experimental: as §2, §3, §4, §5, §6

[4] = test system: Pseudomonas aeruginosa (PA1 - ESBL producing); experiment: Checkerboard MIC, Pseudomonas aeruginosa PA1; format: cell-based; details: for MIC in combination: Ertapenem + Aztreonam combination, Table 1; for MIC: Pseudomonas aeruginosa, PA1, read-out: MIC when taken individually
Experimental: as §1, §2, §3, §4, §5, §6

[5] = Ertapenem 4.88 + Aztreonam 39.06
[6] = Ertapenem 9.76 + Aztreonam 19.53
[7] = Ertapenem 19.53 + Aztreonam 9.76
[8] = Ertapenem + Aztreonam combination, Table 4
[9] = Meropenem 6.1 + Aztreonam 19.53
[10] = Meropenem 12.2 + Aztreonam 9.76
[11] = Meropenem + Aztreonam combination, Table 7
[12] = Ertapenem 1.22 + Aztreonam 2.44
[13] = Ertapenem 2.44 + Aztreonam 4.88
[14] = Ertapenem 4.88 + Aztreonam 9.76
[15] = Ertapenem + Aztreonam combination, Table 2
[16] = Meropenem/Aztreonam checkerboard, Table 5
[17] = Meropenem 0.097 + Aztreonam 19.53
[18] = Meropenem 0.195 + Aztreonam 9.76
[19] = Meropenem + Aztreonam combination, Table 5
[20] = Ertapenem/Aztreonam checkerboard, Table 3
[21] = Meropenem/Aztreonam checkerboard, Table 8
[22] = Ertapenem 0.61 + Aztreonam 312.5
[23] = Ertapenem 1.22 + Aztreonam 156.25
[24] = Ertapenem 2.44 + Aztreonam 78.12
[25] = Ertapenem + Aztreonam combination, Table 3
[26] = Meropenem 1.22 + Aztreonam 9.76
[27] = Meropenem 2.44 + Aztreonam 4.88
[28] = Meropenem + Aztreonam combination, Table 8
[29] = Meropenem 0.0488 + Aztreonam 19.53
[30] = Meropenem 0.097 + Aztreonam 9.76

MIC in combination [1, 8]: 9.76 µg/mL
MIC in combination [1, 11]: 19.53 µg/mL
MIC [1]: 5000 µg/mL
MIC when taken individually ([1]; single drug, Ertapenem/Aztreonam checkerboard, Table 4): 5000 µg/mL
MIC in combination [2, 15]: 1.22 µg/mL
MIC [2, 16]: 1200 µg/mL
MIC in combination [2, 19]: 9.76 µg/mL
MIC (Acinetobacter baumanii; [20]): 10000 µg/mL
MIC (Acinetobacter baumanii; [21]): 5000 µg/mL
MIC in combination (Acinetobacter baumanii; [25]): 78.12 µg/mL
MIC in combination (Acinetobacter baumanii; [28]): 4.88 µg/mL
MIC in combination [3]: 4.88 µg/mL
MIC [3]: 39.1 µg/mL
MIC in combination [4]: 9.76 µg/mL
MIC [4]: 39.1 µg/mL
Compound: C[C@H]1[C@H](NC(=O)/C(=N\OC(C)(C)C(=O)O)c2csc(N)n2)C(=O)N1S(=O)(=O)O [Aztreonam]
FIC of Aztreonam (y-co-ordinate) [1, 5]: 0.0078
FIC of Aztreonam (y-co-ordinate) [1, 6]: 0.0039
FIC of Aztreonam (y-co-ordinate) [1, 7]: 0.001952
FIC of Aztreonam (y-co-ordinate) [1, 9]: 0.039
FIC of Aztreonam (y-co-ordinate) [1, 10]: 0.001952
FIC of Aztreonam (y-co-ordinate) [2, 12]: 0.00195
FIC of Aztreonam (y-co-ordinate) [2, 13]: 0.0039
FIC of Aztreonam (y-co-ordinate) [2, 14]: 0.0078)
FIC of Aztreonam (y-co-ordinate) [2, 6]: 0.016)
FIC of Aztreonam (y-coordinate) [2, 17]: 0.016
FIC of Aztreonam (y-coordinate) [2, 18]: 0.078
FIC of Aztreonam (y-co-ordinate) (Acinetobacter baumanii; [22]): 0.0313)
FIC of Aztreonam (y-co-ordinate) (Acinetobacter baumanii; [23]): 0.0156
FIC of Aztreonam (y-co-ordinate) (Acinetobacter baumanii; [24]): 0.0078
FIC of Aztreonam (y-co-ordinate) (Acinetobacter baumanii; [26]): 0.0039
FIC of Aztreonam (y-co-ordinate) (Acinetobacter baumanii; [27]): 0.00195
FIC of Aztreonam (y-co-ordinate) [3, 29]: 0.5
FIC of Aztreonam (y-co-ordinate) [3, 30]: 0.25
FIC of Aztreonam (y-co-ordinate) [4, 5]: 1.0
FIC of Aztreonam (y-co-ordinate) [4, 6]: 0.5
FIC of Aztreonam (y-co-ordinate) [4, 7]: 0.249

MIC in combination [1, 8]: 4.88 µg/mL
MIC [1]: 9.76 µg/mL
MIC in combination [2, 15]: 4.88 µg/mL
MIC ([2]; Ertapenem/Aztreonam checkerboard, Table 2): 1.22 µg/mL
MIC (Acinetobacter baumanii; [20]): 9.76 µg/mL
MIC in combination (Acinetobacter baumanii; [25]): 0.61 µg/mL
MIC in combination [4]: 4.88 µg/mL
MIC [4]: 9.76 µg/mL
Compound: C[C@@H](O)[C@H]1C(=O)N2C(C(=O)O)=C(S[C@@H]3CN[C@H](C(=O)Nc4cccc(C(=O)O)c4)C3)[C@H](C)[C@H]12 [Ertapenem]
FIC of Ertapenem (x-co-ordinate) [1, 5]: 0.5
FIC of Ertapenem (x-co-ordinate) [1, 6]: 1
FIC of Ertapenem (x-co-ordinate) [1, 7]: 2
FIC of Ertapenem (x-co-ordinate) [2, 12]: 0.25
FIC of Ertapenem (x-co-ordinate) [2, 13]: 0.5
FIC of Ertapenem (x-co-ordinate) [2, 14]: (1.0,
FIC of Ertapenem (x-co-ordinate) [2, 6]: (2.0,
FIC of Ertapenem (x-co-ordinate) (Acinetobacter baumanii; [22]): (0.0625,
FIC of Ertapenem (x-co-ordinate) (Acinetobacter baumanii; [23]): 0.125
FIC of Ertapenem (x-co-ordinate) (Acinetobacter baumanii; [24]): 0.25
FIC of Ertapenem (x-co-ordinate) [4, 5]: 0.5
FIC of Ertapenem (x-co-ordinate) [4, 6]: 1.0
FIC of Ertapenem (x-co-ordinate) [4, 7]: 2.0

MIC in combination [1, 11]: 6.1 µg/mL
MIC [1]: 12.2 µg/mL
MIC [2, 16]: 0.781 µg/mL
MIC in combination [2, 19]: 0.097 µg/mL
MIC (Acinetobacter baumanii; [21]): 19.5 µg/mL
MIC in combination (Acinetobacter baumanii; [28]): 1.22 µg/mL
MIC in combination [3]: 0.0488 µg/mL
MIC [3]: 0.195 µg/mL
Compound: C[C@@H](O)[C@H]1C(=O)N2C(C(=O)O)=C(S[C@@H]3CN[C@H](C(=O)N(C)C)C3)[C@H](C)[C@H]12 [Meropenem]
FIC of Meropenem (x-co-ordinate) [1, 9]: 0.5
FIC of Meropenem (x-co-ordinate) [1, 10]: 1
FIC of Meropenem (x-co-ordinate) [2, 17]: 0.124
FIC of Meropenem (x-co-ordinate) [2, 18]: 0.2496
FIC of Meropenem (x-co-ordinate) (Acinetobacter baumanii; [26]): 0.0625
FIC of Meropenem (x-co-ordinate) (Acinetobacter baumanii; [27]): 0.125
FIC of Meropenem (x-co-ordinate) [3, 29]: 0.25
FIC of Meropenem (x-co-ordinate) [3, 30]: 0.497
FIC of Meropenem (x-co-ordinate) ([3]; Meropenem 0.195 + Aztreonam 4.88): 1.0
